Each block holds one compound with its values, some of them ahead of it.
What was measured:
CDK2/CyclinE = molecular target: T1, CDK2/CyclinE (Homo sapiens, UniProt P24941); assay: CDK2/CycE kinase assay (TR-FRET); format: biochemical; conditions: 2 mM ATP (high ATP); median; read-out: CDK2/CyclinE, 2 mM ATP (high ATP) IC50 - [mol/l] (median)
T1 construct: GST; purchased ProQinase GmbH (Freiburg, Germany); host or cells: insect cells (Sf9)
From the text: 2.4 CDK2/CycE Kinase Assay
CDK2/CycE-inhibitory activity of compounds of the present invention was quantified employing the CDK2/CycE TR-FRET assay as described in the following paragraphs.
Recombinant fusion proteins of GST and human CDK2 and of GST and human CycE, expressed in insect cells (Sf9) and purified by Glutathion-Sepharose affinity chromatography, were purchased from ProQinase GmbH (Freiburg, Germany). As substrate for the kinase reaction biotinylated peptide biotin-Ttds-YISPLKSPYKISEG (C-terminus in amid form) was used which can be purchased e.g. form the company JERINI peptide technologies (Berlin, Germany).
For the assay 50 nanoL of a 100 fold concentrated solution of the test compound in DMSO was pipetted into a black low volume 384 well microtiter plate or a black 1536 well microtiter plate (both Greiner Bio-One, Frickenhausen, Germany), 2 microL of a solution of CDK2/CycE in aqueous assay buffer [50 millimol/L Tris/HCl pH 8.0, 10 millimol/L MgCl2, 1.0 millimol/L dithiothreitol, 0.1 millimol/L sodium ortho-vanadate, 0.01% (v/v) Nonidet-P40 (Sigma)] were added and the mixture was incubated for 15 min at 22° C. to allow pre-binding of the test compounds to the enzyme before the start of the kinase reaction. Then the kinase reaction was started by the addition of 3 microL of a solution of adenosine-tri-phosphate (ATP, 3.33 millimol/L=>final conc. in the 5 microL assay volume is 2 millimol/L) and substrate (1.25 micromol/L=>final conc. in the 5 microL assay volume is 0.75 micromol/L) in assay buffer and the resulting mixture was incubated for a reaction time of 25 min at 22° C. The concentration of CDK2/CycE was adjusted depending of the activity of the enzyme lot and was chosen appropriate to have the assay in the linear range, typical concentrations were in the range of 10 ng/mL. The reaction was stopped by the addition of 3 microL of a solution of TR-FRET detection reagents (0.333 micromol/L streptavidine-XL665 [Cisbio Bioassays, Codolet, France] and 1.67 nanomol/L anti-RB(pSer807/pSer811)-antibody from BD Pharmingen [#558389] and 2 nanomol/L LANCE EU-W1024 labeled anti-mouse IgG antibody [Perkin-Elmer, product no. AD0077, as an alternative a Terbium-cryptate-labeled anti-mouse IgG antibody from Cisbio Bioassays can be used]) in an aqueous EDTA-solution (167 millimol/L EDTA, 0.2% (w/v) bovine serum albumin in 100 millimol/L HEPES pH 7.5).
The resulting mixture was incubated 1 h at 22° C. to allow the formation of complex between the phosphorylated biotinylated peptide and the detection reagents. Subsequently the amount of phosphorylated substrate was evaluated by measurement of the resonance energy transfer from the Eu-chelate to the streptavidine-XL. Therefore, the fluorescence emissions at 620 nm and 665 nm after excitation at 350 nm was measured in a TR-FRET reader, e.g. a Pherastar (BMG Labtechnologies, Offenburg, Germany) or a Viewlux (Perkin-Elmer). The ratio of the emissions at 665 nm and at […] was taken as the measure for the amount of phosphorylated substrate. The data were normalised (enzyme reaction without inhibitor=0% inhibition, all other assay components but no enzyme=100% inhibition).

CDK12 = molecular target: T2, CDK12 (Homo sapiens, UniProt Q9NYV4); assay: CDK12 nuclear protein level: immunofluorescence/high content analysis in CAL-120 cells; format: cell-based; conditions: for DC50: CAL-120 cells, 24 h, nuclear CDK12 staining intensity, median, read-out: CDK12 degradation IF DC50 - [mol/l] (median); for (IC50 CDK12 high ATP) to (Degradation DC50 CDK12) ratio: ratio of IC50 CDK12 hATP (2 mM ATP) to DC50 CDK12 (IF, CAL-120)
T2 construct: endogenous in cells; host or cells: CAL-120 human breast cancer cells (DSMZ ACC 459)
T2 sequence (Q9NYV4 whole entry): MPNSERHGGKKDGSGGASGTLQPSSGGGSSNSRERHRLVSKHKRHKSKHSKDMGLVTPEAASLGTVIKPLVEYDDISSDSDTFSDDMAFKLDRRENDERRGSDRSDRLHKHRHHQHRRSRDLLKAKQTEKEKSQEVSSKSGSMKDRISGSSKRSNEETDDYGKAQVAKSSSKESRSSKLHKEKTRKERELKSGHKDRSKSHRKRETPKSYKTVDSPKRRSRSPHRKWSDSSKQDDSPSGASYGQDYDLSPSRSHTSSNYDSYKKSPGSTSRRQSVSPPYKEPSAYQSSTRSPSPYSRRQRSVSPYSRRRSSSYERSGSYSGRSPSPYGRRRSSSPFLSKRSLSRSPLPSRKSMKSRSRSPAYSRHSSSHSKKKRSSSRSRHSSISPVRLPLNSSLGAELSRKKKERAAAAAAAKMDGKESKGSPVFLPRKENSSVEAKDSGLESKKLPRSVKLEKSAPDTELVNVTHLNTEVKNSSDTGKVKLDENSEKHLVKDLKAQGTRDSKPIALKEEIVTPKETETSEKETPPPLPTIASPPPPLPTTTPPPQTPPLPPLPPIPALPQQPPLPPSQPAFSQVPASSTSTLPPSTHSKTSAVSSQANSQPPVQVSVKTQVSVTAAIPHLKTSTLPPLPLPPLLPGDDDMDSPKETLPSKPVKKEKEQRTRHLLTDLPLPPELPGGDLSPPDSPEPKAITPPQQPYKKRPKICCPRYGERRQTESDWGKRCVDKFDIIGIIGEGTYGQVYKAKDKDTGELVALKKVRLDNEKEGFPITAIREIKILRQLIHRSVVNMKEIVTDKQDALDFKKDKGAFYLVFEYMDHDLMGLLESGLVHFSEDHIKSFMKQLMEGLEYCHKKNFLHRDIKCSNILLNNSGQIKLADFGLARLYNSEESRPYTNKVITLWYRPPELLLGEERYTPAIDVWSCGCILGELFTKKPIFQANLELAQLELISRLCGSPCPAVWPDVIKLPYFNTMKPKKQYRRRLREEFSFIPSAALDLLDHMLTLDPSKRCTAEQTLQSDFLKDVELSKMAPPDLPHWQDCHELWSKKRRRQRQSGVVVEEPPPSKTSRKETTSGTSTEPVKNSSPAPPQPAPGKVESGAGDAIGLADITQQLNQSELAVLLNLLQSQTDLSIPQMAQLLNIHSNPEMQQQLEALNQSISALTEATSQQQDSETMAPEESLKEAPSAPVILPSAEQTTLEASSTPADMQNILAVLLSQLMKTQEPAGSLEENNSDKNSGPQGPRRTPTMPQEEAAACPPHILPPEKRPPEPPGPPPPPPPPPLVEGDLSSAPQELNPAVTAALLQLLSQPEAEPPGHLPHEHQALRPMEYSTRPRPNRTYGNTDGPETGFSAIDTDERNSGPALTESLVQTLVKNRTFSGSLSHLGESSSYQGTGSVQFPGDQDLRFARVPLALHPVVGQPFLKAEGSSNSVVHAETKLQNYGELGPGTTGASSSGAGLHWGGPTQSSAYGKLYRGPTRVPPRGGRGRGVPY
T2 sequence (O75909 whole entry partner): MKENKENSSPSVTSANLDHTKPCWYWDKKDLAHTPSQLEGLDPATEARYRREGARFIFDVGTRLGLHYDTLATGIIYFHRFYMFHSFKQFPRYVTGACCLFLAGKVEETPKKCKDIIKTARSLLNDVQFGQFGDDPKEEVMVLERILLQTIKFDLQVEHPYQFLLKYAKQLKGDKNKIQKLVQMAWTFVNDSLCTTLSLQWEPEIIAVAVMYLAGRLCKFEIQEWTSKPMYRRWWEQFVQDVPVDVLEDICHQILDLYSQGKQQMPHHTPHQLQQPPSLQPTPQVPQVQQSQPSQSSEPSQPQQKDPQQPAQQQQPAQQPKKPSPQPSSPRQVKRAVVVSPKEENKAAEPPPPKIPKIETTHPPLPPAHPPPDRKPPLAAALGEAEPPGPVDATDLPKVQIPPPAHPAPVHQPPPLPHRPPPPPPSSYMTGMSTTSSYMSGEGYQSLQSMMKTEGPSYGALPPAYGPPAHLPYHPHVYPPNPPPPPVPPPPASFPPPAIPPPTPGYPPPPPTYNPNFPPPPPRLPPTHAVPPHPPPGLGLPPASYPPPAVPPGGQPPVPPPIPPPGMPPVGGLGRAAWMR
Description: 6. CDK12 Nuclear Protein Level: Immunofluorescence/High Content Analysis
In the context of the present invention, the term “DC50 CDK12” refers to the DC50 values obtained according to the assay described in this section (6) herein below, i.e. the DC50 values for the degradation of CDK12.:
CAL-120 human breast cancer cells (DSMZ ACC 459) are seeded in 1536-well microtiter plates (800 cells per well) containing 50 nanoL of compounds in Dose-Response. Control wells received DMSO or Reference Example 1. Plates are then incubated for 24 h at 37° C. in an humidified incubator and fixed with 4% PFA for 10 min. Then immunofluorescence (IF) against CDK12 (CellSignalling CDK12 Antibody #11973, rabbit, 1:100 dilution) is performed using standard IF protocols. Cells are then stained with Hoechst 33342 (Life Technologies, H-1399, 0.1 microg/mL) and imaged on an automated confocal microscopy system (e.g. Perkin Elmer Opera Phenix). Nuclear and cytoplasmic intensity as well as the nuclear/cytoplasmic intensity ratio is determined by automated image analysis using custom generated scripts (MetaXpress). Data is then transferred to Genedata Screener software, normalized to DMSO and control and DC50 values (degrading concentration to achieve 50% reduction of nuclear CDK12 staining intensity relative to controls) are reported.

Structure (SMILES): O[C@H]1C[C@H](Cn2nc(NCc3nc4ccccc4[nH]3)c3ncc(C4CC4)nc32)C1 [Example 70, trans-3-[(3-{[(1H-benzimidazol-2-yl)methyl]amino}-6-cyclopropyl-1H-pyrazolo[3,4-b]pyrazin-1-yl)methyl]cyclobutan-1-ol]
IC50 (CDK2/CyclinE): > 20000 nM
DC50 (CDK12): 10.8 nM

Structure (SMILES): Cc1cccc2[nH]c(CNc3nn(C4CCOCC4)c4nc(C5CC5)cnc34)nc12 [Example 33, 6-cyclopropyl-N-[(4-methyl-1H-benzimidazol-2-yl)methyl]-1-(oxan-4-yl)-1H-pyrazolo[3,4-b]pyrazin-3-amine]
IC50 (CDK2/CyclinE): > 20000 nM
DC50 (CDK12): 8.65 nM
(IC50 CDK12 high ATP) to (Degradation DC50 CDK12) ratio (CDK12): >2312

Structure (SMILES): CN1CCC(n2nc(NCc3nc4cc(Cl)ccc4[nH]3)c3ncc(C4CC4)nc32)CC1 [Example 22, N-[(5-chloro-1H-benzimidazol-2-yl)methyl]-6-cyclopropyl-1-(1-methylpiperidin-4-yl)-1H-pyrazolo[3,4-b]pyrazin-3-amine]
IC50 (CDK2/CyclinE): > 20000 nM
DC50 (CDK12): 11.8 nM
(IC50 CDK12 high ATP) to (Degradation DC50 CDK12) ratio (CDK12): >1695

Structure (SMILES): O[C@H]1CC[C@H](n2nc(NCc3nc4ccccc4[nH]3)c3ncc(C4CC4)nc32)CC1 [Example 50, trans-4-(3-{[(1H-benzimidazol-2-yl)methyl]amino}-6-cyclopropyl-1H-pyrazolo[3,4-b]pyrazin-1-yl)cyclohexan-1-ol]
IC50 (CDK2/CyclinE): > 20000 nM
DC50 (CDK12): 3.15 nM

Structure (SMILES): CC(C)(O)Cn1nc(NCc2nc3ccccc3[nH]2)c2ncc(C3CC3)nc21 [Example 69, 1-(3-{[(1H-benzimidazol-2-yl)methyl]amino}-6-cyclopropyl-1H-pyrazolo[3,4-b]pyrazin-1-yl)-2-methylpropan-2-ol]
IC50 (CDK2/CyclinE): > 20000 nM
DC50 (CDK12): 99.4 nM
(IC50 CDK12 high ATP) to (Degradation DC50 CDK12) ratio (CDK12): >101

Structure (SMILES): c1ccc2[nH]c(CNc3nn(C4CC5(COC5)C4)c4nc(C5CC5)cnc34)nc2c1 [Example 54, N-[(1H-benzimidazol-2-yl)methyl]-6-cyclopropyl-1-(2-oxaspiro[3.3]heptan-6-yl)-1H-pyrazolo[3,4-b]pyrazin-3-amine]
IC50 (CDK2/CyclinE): > 20000 nM
DC50 (CDK12): 13.1 nM

Structure (SMILES): O[C@H]1C[C@H](n2nc(NCc3nc4ccccc4[nH]3)c3ncc(C4CC4)nc32)C1 [Example 43, trans-3-(3-{[(1H-benzimidazol-2-yl)methyl]amino}-6-cyclopropyl-1H-pyrazolo[3,4-b]pyrazin-1-yl)cyclobutan-1-ol]
IC50 (CDK2/CyclinE): > 20000 nM
DC50 (CDK12): 9.53 nM

Structure (SMILES): CC(C)(C)OC(=O)N1CCC(n2nc(NCc3nc4ccccc4[nH]3)c3ncc(C4CC4)nc32)CC1 [Example 11, tert-butyl 4-(3-{[(1H-benzimidazol-2-yl)methyl]amino}-6-cyclopropyl-1H-pyrazolo[3,4-b]pyrazin-1-yl)piperidine-1-carboxylate]
IC50 (CDK2/CyclinE): > 20000 nM
DC50 (CDK12): 74.9 nM
(IC50 CDK12 high ATP) to (Degradation DC50 CDK12) ratio (CDK12): >267

Structure (SMILES): Cc1cnc2c(NCc3nc4ccccc4[nH]3)nn(C3CCN(C)CC3)c2n1 [Example 77, N-[(1H-benzimidazol-2-yl)methyl]-6-methyl-1-(1-methylpiperidin-4-yl)-1H-pyrazolo[3,4-b]pyrazin-3-amine]
IC50 (CDK2/CyclinE): > 20000 nM
DC50 (CDK12): 127 nM
(IC50 CDK12 high ATP) to (Degradation DC50 CDK12) ratio (CDK12): >133

Structure (SMILES): O[C@H]1CC[C@H](n2nc(NCc3nc4cc(F)ccc4[nH]3)c3ncc(C4CC4)nc32)CC1 [Example 56, trans-4-(6-cyclopropyl-3-{[(5-fluoro-1H-benzimidazol-2-yl)methyl]amino}-1H-pyrazolo[3,4-b]pyrazin-1-yl)cyclohexan-1-ol]
IC50 (CDK2/CyclinE): > 20000 nM
DC50 (CDK12): 7.11 nM

Structure (SMILES): CN1CCC(n2nc(NCc3nc4ccccc4[nH]3)c3ncc(C4CC4)nc32)C1 (racemic) [Example 35, (±)-N-[(1H-benzimidazol-2-yl)methyl]-6-cyclopropyl-1-(1-methylpyrrolidin-3-yl)-1H-pyrazolo[3,4-b]pyrazin-3-amine]
IC50 (CDK2/CyclinE): > 20000 nM
DC50 (CDK12): 19.1 nM
(IC50 CDK12 high ATP) to (Degradation DC50 CDK12) ratio (CDK12): >1046

Results, then the compound that gave them:

IC50 (CDK2/CyclinE): > 20000 nM
DC50 (CDK12): 8.43 nM
(IC50 CDK12 high ATP) to (Degradation DC50 CDK12) ratio (CDK12): 2193
Structure (SMILES): CN1CCC(n2nc(NCc3nc4cc(C(F)(F)F)ccc4[nH]3)c3ncc(C4CC4)nc32)CC1 [Example 25, 6-cyclopropyl-1-(1-methylpiperidin-4-yl)-N-{[5-(trifluoromethyl)-1H-benzimidazol-2-yl]methyl}-1H-pyrazolo[3,4-b]pyrazin-3-amine]

IC50 (CDK2/CyclinE): > 20000 nM
DC50 (CDK12): 49.1 nM
(IC50 CDK12 high ATP) to (Degradation DC50 CDK12) ratio (CDK12): 41
Structure (SMILES): CN1CCC(n2nc(NCc3nc4cc(SC(F)(F)F)ccc4[nH]3)c3ncc(C4CC4)nc32)CC1 [Example 27, 6-cyclopropyl-1-(1-methylpiperidin-4-yl)-N-({5-[(trifluoromethyl)sulfanyl]-1H-benzimidazol-2-yl}methyl)-1H-pyrazolo[3,4-b]pyrazin-3-amine]

IC50 (CDK2/CyclinE): > 18200 nM
DC50 (CDK12): 8.11 nM
Structure (SMILES): c1ccc2[nH]c(CNc3nn(C4C[C@H]5CC[C@@H](C4)O5)c4nc(C5CC5)cnc34)nc2c1 (stereo partly drawn) [Example 45, exo/endo-N-[(1H-benzimidazol-2-yl)methyl]-6-cyclopropyl-1-(8-oxabicyclo[3.2.1]octan-3-yl)-1H-pyrazolo[3,4-b]pyrazin-3-amine]

IC50 (CDK2/CyclinE): > 20000 nM
DC50 (CDK12): 7.12 nM
Structure (SMILES): CC(C)(O)C1CC(n2nc(NCc3nc4ccccc4[nH]3)c3ncc(C4CC4)nc32)C1 (mixture of isomers) [Example 48, 2-[cis/trans-3-(3-{[(1H-benzimidazol-2-yl)methyl]amino}-6-cyclopropyl-1H-pyrazolo[3,4-b]pyrazin-1-yl)cyclobutyl]propan-2-ol]

IC50 (CDK2/CyclinE): > 20000 nM
DC50 (CDK12): 19.4 nM
(IC50 CDK12 high ATP) to (Degradation DC50 CDK12) ratio (CDK12): >1116
Structure (SMILES): OCCn1nc(NCc2nc3ccccc3[nH]2)c2ncc(C3CC3)nc21 [Example 66, 2-(3-{[(1H-benzimidazol-2-yl)methyl]amino}-6-cyclopropyl-1H-pyrazolo[3,4-b]pyrazin-1-yl)ethan-1-ol]

IC50 (CDK2/CyclinE): > 20000 nM
DC50 (CDK12): 40.8 nM
(IC50 CDK12 high ATP) to (Degradation DC50 CDK12) ratio (CDK12): >4901
Structure (SMILES): c1ccc2[nH]c(CNc3nn(C4CCOC4)c4nc(C5CC5)cnc34)nc2c1 (racemic) [Example 10, (±)-N-[(1H-benzimidazol-2-yl)methyl]-6-cyclopropyl-1-[oxolan-3-yl]-1H-pyrazolo[3,4-b]pyrazin-3-amine]

IC50 (CDK2/CyclinE): > 20000 nM
DC50 (CDK12): 49.3 nM
Structure (SMILES): CC1(C)CC(n2nc(NCc3nc4ccccc4[nH]3)c3ncc(C4CC4)nc32)CC(C)(C)O1 [Example 52, N-[(1H-benzimidazol-2-yl)methyl]-6-cyclopropyl-1-(2,2,6,6-tetramethyloxan-4-yl)-1H-pyrazolo[3,4-b]pyrazin-3-amine]
